Counter-ions that a name gives are not always drawn.

In test [1] the test system is AsPC-1 (human metastatic pancreatic adenocarcinoma cells) cells. In words: CCK-8 cell viability of AsPC-1 cells. Particulars: for Cell vitality (%): 24 h, n = 3. Type of test: cell-based. The procedure: Therapeutic effects of two drugs, Inonotus Obliquus polysaccharide and gemcitabine hydrochloride, alone and in combination, on AsPC-1 (human metastatic pancreatic adenocarcinoma cells) cells are investigated respectively. Cell culture: AsPC-1 (human metastatic pancreatic adenocarcinoma cells) cells are resuscitated in culture flasks and incubated at 37° C. in a 5% CO2 incubator; the cells are adhered to the wall and then subjected to passaging or […] operations; inoculation: when the cells are in logarithmic growth phase, they are washed twice with PBS buffer (phosphate concentration 0.01 M, pH 7.2-7.4); the cells are digested by 1 mL of 0.25% trypsin-EDTA (ethylene diamine tetraacetic acid) for 1-2 min, then 2 mL of RPMI-1640 culture solution containing 10% fetal bovine serum and 1% of double antibodies (penicillin and streptomycin) is added to terminate the digestion, followed by centrifuging at 1,000 revolutions per minute (rpm) for 3 min; then the wall-adhered cells are completely blown down and enumerated by hemocytometer plates, where the cells are inoculated in an 96-well plate in an amount of 100 μL per well, with a controlled number of 5,000 cells per well, and incubated in an incubator for 24 h. CCK-8 experiment dosing: […] Calculation of cell viability for each group:Cell viability (%)=(ODsample−ODblank)×100/(ODcontrol−ODblank)

The next test has as its system AsPC-1 cell. To be noted: 0, 200 μg/mL, 400 μg/mL, 800 ng/mL; 24 h incubation; FIG. 9.

Turning to `Nc1ccn([C@@H]2O[C@H](CO)[C@@H](O)C2(F)F)c(=O)n1` [gemcitabine hydrochloride, reference compound], the “Cell vitality (%)” value in test [1] (0 μg/mL IOP1-1 + 20 μg/mL gemcitabine hydrochloride) stood at 66.1 ± 5.49%.
Consider Inonotus Obliquus dextran [IOP1-1], for which the “Cell vitality (%)” value in test [1] (400 μg/mL IOP1-1 + 0 μg/mL gemcitabine hydrochloride) came to 78.2 ± 2.24%; in test [1] (800 μg/mL IOP1-1 + 0 μg/mL gemcitabine hydrochloride) it was 66.5 ± 4.12%. In addition, the “therapeutic effect on AsPC-1 tumor cells / tumor inhibition” value in test [1] (summary in words of Table 2) is given as “excellent”. The mitochondrial membrane potential entry in the test with AsPC-1 cell is listed as “decreases as the concentration of drug administered increases”.

Values taken from patent publication US11744868B1, “Inonotus obliquus dextran, preparation method and application thereof” (Jilin Agricultural University, priority 2022, dated 2023).
